Converted amounts (≈) assume the structure as drawn.
Legend:
Format in all cases: functional
Bacteroides fragilis = assay: Antimicrobial activity against Bacteroides fragilis clinical isolate after 18 to 22 hrs by broth microdilution method
Moraxella catarrhalis = assay: Antimicrobial activity against Moraxella catarrhalis clinical isolate after 18 to 22 hrs by broth microdilution method
Haemophilus influenzae [1] = assay: Antimicrobial activity against beta-lactamase-negative Haemophilus influenzae clinical isolate after 18 to 22 hrs by broth microdilution method
[2] = tested on: Bacteroides thetaiotaomicron; assay: Antimicrobial activity against Bacteroides thetaiotaomicron clinical isolate after 18 to 22 hrs by broth microdilution method
Citrobacter freundii [3] = assay: Antimicrobial activity against Citrobacter freundii clinical isolate after 18 to 22 hrs by broth microdilution method
[4] = tested on: Stenotrophomonas maltophilia; assay: Antimicrobial activity against Stenotrophomonas maltophilia clinical isolate after 18 to 22 hrs by broth microdilution method
Acinetobacter baumannii = assay: Antimicrobial activity against Acinetobacter baumannii clinical isolate after 18 to 22 hrs by broth microdilution method
Citrobacter freundii [5] = assay: Antimicrobial activity against AmpC beta-lactamase-producing Citrobacter freundii clinical isolate after 18 to 22 hrs by broth microdilution method
Klebsiella pneumoniae [6] = assay: Antimicrobial activity against class A extended spectrum beta-lactamase- producing Klebsiella pneumoniae clinical isolate after 18 to 22 hrs by broth microdilution method
Enterobacter cloacae [7] = assay: Antimicrobial activity against Enterobacter cloacae clinical isolate after 18 to 22 hrs by broth microdilution method
Klebsiella pneumoniae [8] = assay: Antimicrobial activity against class A extended spectrum beta-lactamase- and class D OXA- producing Klebsiella pneumoniae clinical isolate after 18 to 22 hrs by broth microdilution method
Klebsiella aerogenes [9] = assay: Antimicrobial activity against AmpC beta-lactamase-producing Enterobacter aerogenes clinical isolate after 18 to 22 hrs by broth microdilution method
Parvimonas micra = assay: Antimicrobial activity against Peptostreptococcus micros clinical isolate after 18 to 22 hrs by broth microdilution method
Klebsiella aerogenes [10] = assay: Antimicrobial activity against Enterobacter aerogenes clinical isolate after 18 to 22 hrs by broth microdilution method
Providencia stuartii = assay: Antimicrobial activity against Providencia stuartii clinical isolate after 18 to 22 hrs by broth microdilution method
Acinetobacter junii = assay: Antimicrobial activity against Acinetobacter junii clinical isolate after 18 to 22 hrs by broth microdilution method
Burkholderia cepacia = assay: Antimicrobial activity against Burkholderia cepacia clinical isolate after 18 to 22 hrs by broth microdilution method
Morganella morganii = assay: Antimicrobial activity against Morganella morganii clinical isolate after 18 to 22 hrs by broth microdilution method
Enterobacter cloacae [11] = assay: Antimicrobial activity against AmpC beta-lactamase-producing Enterobacter cloacae clinical isolate after 18 to 22 hrs by broth microdilution method
Klebsiella oxytoca = assay: Antimicrobial activity against Klebsiella oxytoca clinical isolate after 18 to 22 hrs by broth microdilution method
Citrobacter koseri = assay: Antimicrobial activity against Citrobacter koseri clinical isolate after 18 to 22 hrs by broth microdilution method
Pseudomonas aeruginosa = assay: Antimicrobial activity against Pseudomonas aeruginosa clinical isolate after 18 to 22 hrs by broth microdilution method
Serratia marcescens [12] = assay: Antimicrobial activity against AmpC beta-lactamase-producing Serratia marcescens clinical isolate after 18 to 22 hrs by broth microdilution method
Clostridium perfringens = assay: Antimicrobial activity against Clostridium perfringens clinical isolate after 18 to 22 hrs by broth microdilution method
[13] = tested on: Acinetobacter calcoaceticus; assay: Antimicrobial activity against Acinetobacter calcoaceticus clinical isolate after 18 to 22 hrs by broth microdilution method
[14] = tested on: Peptostreptococcus anaerobius; assay: Antimicrobial activity against Peptostreptococcus anaerobius clinical isolate after 18 to 22 hrs by broth microdilution method
Acinetobacter johnsonii = assay: Antimicrobial activity against Acinetobacter johnsonii clinical isolate after 18 to 22 hrs by broth microdilution method
Escherichia coli [15] = assay: Antimicrobial activity against class A extended spectrum beta-lactamase- and class D OXA- producing Escherichia coli clinical isolate after 18 to 22 hrs by broth microdilution method
Klebsiella pneumoniae [16] = assay: Antimicrobial activity against AmpC- producing Klebsiella pneumoniae clinical isolate after 18 to 22 hrs by broth microdilution method
Bacteroides uniformis = assay: Antimicrobial activity against Bacteroides uniformis clinical isolate after 18 to 22 hrs by broth microdilution method
Providencia rettgeri = assay: Antimicrobial activity against Providencia rettgeri clinical isolate after 18 to 22 hrs by broth microdilution method
Proteus vulgaris = assay: Antimicrobial activity against Proteus vulgaris clinical isolate after 18 to 22 hrs by broth microdilution method
[17] = tested on: Haemophilus parainfluenzae; assay: Antimicrobial activity against Haemophilus parainfluenzae clinical isolate after 18 to 22 hrs by broth microdilution method
Escherichia coli [18] = assay: Antimicrobial activity against AmpC beta-lactamase-producing Escherichia coli clinical isolate after 18 to 22 hrs by broth microdilution method
Klebsiella pneumoniae [19] = assay: Antimicrobial activity against Klebsiella pneumoniae clinical isolate after 18 to 22 hrs by broth microdilution method
Haemophilus influenzae [20] = assay: Antimicrobial activity against beta-lactamase-producing Haemophilus influenzae clinical isolate after 18 to 22 hrs by broth microdilution method
Proteus mirabilis = assay: Antimicrobial activity against Proteus mirabilis clinical isolate after 18 to 22 hrs by broth microdilution method
Escherichia coli [21] = assay: Antimicrobial activity against class A extended spectrum beta-lactamase- producing Escherichia coli clinical isolate after 18 to 22 hrs by broth microdilution method
Serratia marcescens [22] = assay: Antimicrobial activity against Serratia marcescens clinical isolate after 18 to 22 hrs by broth microdilution method
Acinetobacter lwoffii = assay: Antimicrobial activity against Acinetobacter lwoffii clinical isolate after 18 to 22 hrs by broth microdilution method
[23] = tested on: Acinetobacter haemolyticus; assay: Antimicrobial activity against Acinetobacter haemolyticus clinical isolate after 18 to 22 hrs by broth microdilution method

C[C@@H](O)[C@H]1C(=O)N2C(C(=O)O)=C(SCCNC=N)C[C@H]12 [IMIPENEM ANHYDROUS]
MIC50 (Bacteroides fragilis): 0.25 µg/mL (≈ 0.835 µM) | MIC90 (Bacteroides fragilis): 0.5 µg/mL (≈ 1.67 µM) | MIC (Moraxella catarrhalis): ≤ 0.03 µg/mL | MIC50 (Moraxella catarrhalis): ≤ 0.03 µg/mL | MIC90 (Moraxella catarrhalis): 0.06 µg/mL (≈ 0.2 µM) | MIC (Haemophilus influenzae [1]): 0.12 µg/mL (≈ 0.401 µM) | MIC50 (Haemophilus influenzae [1]): 0.05 µg/mL (≈ 0.167 µM) | MIC90 (Haemophilus influenzae [1]): 1 µg/mL (≈ 3.34 µM) | MIC [2]: 0.25 µg/mL (≈ 0.835 µM) | MIC50 [2]: 0.25 µg/mL (≈ 0.835 µM) | MIC90 [2]: 1 µg/mL (≈ 3.34 µM) | MIC50 (Citrobacter freundii [3]): 1 µg/mL (≈ 3.34 µM) | MIC90 (Citrobacter freundii [3]): 1 µg/mL (≈ 3.34 µM) | MIC [4]: > 32 µg/mL | MIC50 [4]: > 32 µg/mL | MIC90 [4]: > 32 µg/mL | MIC50 (Acinetobacter baumannii): 1 µg/mL (≈ 3.34 µM) | MIC90 (Acinetobacter baumannii): 32 µg/mL (≈ 107 µM) | MIC (Citrobacter freundii [5]): 0.5 µg/mL (≈ 1.67 µM) | MIC50 (Citrobacter freundii [5]): 0.5 µg/mL (≈ 1.67 µM) | MIC90 (Citrobacter freundii [5]): 2 µg/mL (≈ 6.68 µM) | MIC50 (Klebsiella pneumoniae [6]): 0.25 µg/mL (≈ 0.835 µM) | MIC90 (Klebsiella pneumoniae [6]): 0.5 µg/mL (≈ 1.67 µM) | MIC50 (Enterobacter cloacae [7]): 0.5 µg/mL (≈ 1.67 µM) | MIC90 (Enterobacter cloacae [7]): 1 µg/mL (≈ 3.34 µM) | MIC50 (Klebsiella pneumoniae [8]): 0.25 µg/mL (≈ 0.835 µM) | MIC90 (Klebsiella pneumoniae [8]): 0.5 µg/mL (≈ 1.67 µM) | MIC (Klebsiella aerogenes [9]): 0.5 µg/mL (≈ 1.67 µM) | MIC50 (Klebsiella aerogenes [9]): 0.5 µg/mL (≈ 1.67 µM) | MIC90 (Klebsiella aerogenes [9]): 2 µg/mL (≈ 6.68 µM) | MIC50 (Parvimonas micra): 0.06 µg/mL (≈ 0.2 µM) | MIC90 (Parvimonas micra): 0.12 µg/mL (≈ 0.401 µM) | MIC50 (Klebsiella aerogenes [10]): 1 µg/mL (≈ 3.34 µM) | MIC90 (Klebsiella aerogenes [10]): 2 µg/mL (≈ 6.68 µM) | MIC50 (Providencia stuartii): 2 µg/mL (≈ 6.68 µM) | MIC90 (Providencia stuartii): 2 µg/mL (≈ 6.68 µM) | MIC50 (Acinetobacter junii): 0.06 µg/mL (≈ 0.2 µM) | MIC90 (Acinetobacter junii): 0.5 µg/mL (≈ 1.67 µM) | MIC50 (Burkholderia cepacia): 8 µg/mL (≈ 26.7 µM) | MIC90 (Burkholderia cepacia): 16 µg/mL (≈ 53.4 µM) | MIC50 (Morganella morganii): 4 µg/mL (≈ 13.4 µM) | MIC90 (Morganella morganii): 4 µg/mL (≈ 13.4 µM) | MIC (Enterobacter cloacae [11]): 0.5 µg/mL (≈ 1.67 µM) | MIC50 (Enterobacter cloacae [11]): 0.5 µg/mL (≈ 1.67 µM) | MIC90 (Enterobacter cloacae [11]): 2 µg/mL (≈ 6.68 µM) | MIC50 (Klebsiella oxytoca): 0.25 µg/mL (≈ 0.835 µM) | MIC90 (Klebsiella oxytoca): 0.5 µg/mL (≈ 1.67 µM) | MIC50 (Citrobacter koseri): 0.12 µg/mL (≈ 0.401 µM) | MIC90 (Citrobacter koseri): 0.12 µg/mL (≈ 0.401 µM) | MIC50 (Pseudomonas aeruginosa): 2 µg/mL (≈ 6.68 µM) | MIC90 (Pseudomonas aeruginosa): 32 µg/mL (≈ 107 µM) | MIC (Serratia marcescens [12]): 0.5 µg/mL (≈ 1.67 µM) | MIC50 (Serratia marcescens [12]): 0.5 µg/mL (≈ 1.67 µM) | MIC90 (Serratia marcescens [12]): 2 µg/mL (≈ 6.68 µM) | MIC50 (Clostridium perfringens): 0.06 µg/mL (≈ 0.2 µM) | MIC90 (Clostridium perfringens): 0.06 µg/mL (≈ 0.2 µM) | MIC50 [13]: 1 µg/mL (≈ 3.34 µM) | MIC90 [13]: 32 µg/mL (≈ 107 µM) | MIC50 [14]: 0.03 µg/mL (≈ 0.1 µM) | MIC90 [14]: 0.06 µg/mL (≈ 0.2 µM) | MIC50 (Acinetobacter johnsonii): 0.06 µg/mL (≈ 0.2 µM) | MIC90 (Acinetobacter johnsonii): 0.5 µg/mL (≈ 1.67 µM) | MIC (Escherichia coli [15]): 0.12 µg/mL (≈ 0.401 µM) | MIC50 (Escherichia coli [15]): 0.12 µg/mL (≈ 0.401 µM) | MIC90 (Escherichia coli [15]): 0.25 µg/mL (≈ 0.835 µM) | MIC50 (Klebsiella pneumoniae [16]): 1 µg/mL (≈ 3.34 µM) | MIC90 (Klebsiella pneumoniae [16]): 16 µg/mL (≈ 53.4 µM) | MIC (Bacteroides uniformis): 0.12 µg/mL (≈ 0.401 µM) | MIC50 (Bacteroides uniformis): 0.12 µg/mL (≈ 0.401 µM) | MIC90 (Bacteroides uniformis): 0.25 µg/mL (≈ 0.835 µM) | MIC50 (Providencia rettgeri): 2 µg/mL (≈ 6.68 µM) | MIC90 (Providencia rettgeri): 2 µg/mL (≈ 6.68 µM) | MIC50 (Proteus vulgaris): 2 µg/mL (≈ 6.68 µM) | MIC90 (Proteus vulgaris): 4 µg/mL (≈ 13.4 µM) | MIC50 [17]: 0.25 µg/mL (≈ 0.835 µM) | MIC90 [17]: 0.5 µg/mL (≈ 1.67 µM) | MIC (Escherichia coli [18]): 0.12 µg/mL (≈ 0.401 µM) | MIC50 (Escherichia coli [18]): 0.12 µg/mL (≈ 0.401 µM) | MIC90 (Escherichia coli [18]): 0.25 µg/mL (≈ 0.835 µM) | MIC50 (Klebsiella pneumoniae [19]): 0.25 µg/mL (≈ 0.835 µM) | MIC90 (Klebsiella pneumoniae [19]): 0.5 µg/mL (≈ 1.67 µM) | MIC50 (Haemophilus influenzae [20]): 0.5 µg/mL (≈ 1.67 µM) | MIC90 (Haemophilus influenzae [20]): 0.5 µg/mL (≈ 1.67 µM) | MIC50 (Proteus mirabilis): 2 µg/mL (≈ 6.68 µM) | MIC90 (Proteus mirabilis): 4 µg/mL (≈ 13.4 µM) | MIC (Escherichia coli [21]): 0.12 µg/mL (≈ 0.401 µM) | MIC50 (Escherichia coli [21]): 0.12 µg/mL (≈ 0.401 µM) | MIC90 (Escherichia coli [21]): 0.5 µg/mL (≈ 1.67 µM) | MIC50 (Serratia marcescens [22]): 1 µg/mL (≈ 3.34 µM) | MIC90 (Serratia marcescens [22]): 2 µg/mL (≈ 6.68 µM) | MIC50 (Acinetobacter lwoffii): 0.06 µg/mL (≈ 0.2 µM) | MIC90 (Acinetobacter lwoffii): 0.5 µg/mL (≈ 1.67 µM) | MIC50 [23]: 0.06 µg/mL (≈ 0.2 µM) | MIC90 [23]: 0.5 µg/mL (≈ 1.67 µM)
